Patent US20100331410A1, “Biaryl Amides” (Asterand UK Limited, priority 2008, published 2010)

| Structure (SMILES) | melting point [°C] |
| --- | --- |
| CC(C)OC(=O)/C=C/c1cccc(NC(=O)c2cc(-c3cccc(F)c3)ccc2F)c1 [Compound 5, 3-[(3′-Fluoro-4-fluorobiphenyl-3-carbonyl)amino]cinnamic acid, isopropyl ester] | 154 to 155 |
| COC(=O)/C=C/c1cccc(NC(=O)c2cc(-c3cccc(F)c3)ccc2F)c1 [Compound 6, 3-[(3′-Fluoro-4-fluorobiphenyl-3-carbonyl)amino]cinnamic acid, methyl ester] | 144 to 145 |
| NC(=O)/C=C/c1cccc(NC(=O)c2cc(-c3cccc(F)c3)ccc2F)c1 [Compound 7, 3-[(3′-Fluoro-4-fluorobiphenyl-3-carbonyl)amino]cinnamamide] | 216 to 218 |

Continued, values first:

| melting point [°C] | Structure (SMILES) |
| --- | --- |
| 135 to 137 | O=C(COc1cccc(NC(=O)c2cc(-c3cccc(F)c3)ccc2F)c1)OCCO [Compound 1, 3-[(3′-Fluoro-4-fluorobiphenyl-3-carbonyl)amino]phenoxyacetic acid, ethylene glycol ester] |
| 203 to 206 | NC(=O)COc1cccc(NC(=O)c2cc(-c3cccc(F)c3)ccc2F)c1 [Compound 3, 3-[(3′-Fluoro-4-fluorobiphenyl-3-carbonyl)amino]phenoxyacetamide] |
| 103 to 104 | COC(=O)COc1cccc(NC(=O)c2cc(-c3cccc(F)c3)ccc2F)c1 [Compound 4, 3-[(3′-Fluoro-4-fluorobiphenyl-3-carbonyl)amino]phenoxyacetic acid, methyl ester] |
